Reference: patent US20190240502A1, “METHODS, COMPOSITIONS AND APPARATUSES FOR TREATING PSORIASIS BY PHOTOTHERAPY” (Luma Therapeutics, Inc., priority 2016, published 2019)

Format: physicochemical
Method: In forming the dressing shown in FIGS. 19A and 19B, the gel may be heat cured (e.g., at between 30-40° C. for between 1-4 hours, e.g., 2 hours at 35° C.). As will be described in more detail below, a very high salt (e.g., MgCl2), such as between 5% and 50% (weight of salt to weight of gel total) may be added to the hydrogel. For example 10% MgCl2 may be used which may help keep the coal tar globules or clusters from dissolving into the gel. […] In the context of the dressings described herein, a decrease in U.V. transmittance may require a longer treatment time (given that power output from the light cannot be increased) or may make treatment with the dressing impossible or impractical. […] Typically the greater the percentage of MgCl2 the better the effect. However, 5% or more may be sufficient; if longer shelf life for the dressings (e.g., beyond one week, two weeks, three weeks, on month, two months, three months, six months, 1 year, etc.) is desired higher MgCl2 percentages (e.g., 7.5%, 10%, or more) may be used.

Compound | effect of additive on coal tar solubility in hydrogel | solubility of coal tar
[Cl-].[Cl-].[Mg+2] [MgCl2] | lower coal tar solubility | 
OC[C@@H](O)[C@@H](O)[C@H](O)[C@@H](O)CO [Sorbitol, sorbitol] | increased solubility of coal tar in water | 
coal tar |  | low solubility
